Data: patent publication US5914319A, “Antithrombotic agents” (Eli Lilly and Company, priority 1995, dated 1999)
Counter-ions that a name gives are not always drawn.

Assays:
Type in all cases: biochemical
Human plasma [1] = assay: Human plasma anticoagulation, activated partial thromboplastin time (APTT); conditions: concentration required to double the APTT, linear extrapolation
Procedure: (§1) Dog plasma and rat plasma is obtained from conscious mixed-breed hounds (either sex, Hazelton-LRE, Kalamazoo, Mich., U.S.A.) or from anesthetized male Sprague-Dawley rats (Harlan Sprague-Dawley, Inc., Indianapolis, Ind., U.S.A.) by venipuncture into 3.8 percent citrate. Fibrinogen is prepared from in-date ACD human blood as the fraction I-2 according to previous procedures and specifications. […] Human fibrinogen is also purchased as 98 percent pure/plasmin free from American Diagnostica, Greenwich, Conn. Coagulation reagents ACTIN, Thromboplastin, and Human plasma are from Baxter Healthcare Corp., Dade Division, Miami, Fla. Bovine thrombin from Parke-Davis ([…], Mich.) is used for coagulation assays in plasma.
(§2) Coagulation assay procedures are as previously described. […] A CoAScreener coagulation instrument (American LABor, Inc.) is used for all coagulation assay measurements. The prothrombin time (PT) is measured by adding 0.05 mL saline and 0.05 mL Thromboplastin-C reagent to 0.05 mL test plasma. The activated partial thromboplastin time (APTT) is measured by incubation of 0.05 mL test plasma with 0.05 mL Actin reagent for 120 seconds followed by 0.05 mL CaCl2 (0.02M). The thrombin time (TT) is measured by adding 0.05 mL saline and 0.05 mL thrombin (10 NIH units/mL) to 0.05 mL test plasma. The compounds of Formula I are added to human or animal plasma over a wide range of concentrations to determine prolongation effects on the APTT, PT, and TT assays. Linear extrapolations are performed to estimate the concentrations required to double the clotting time for each assay.

Human plasma [2] = assay: Human plasma anticoagulation, prothrombin time (PT); conditions: concentration required to double the PT, linear extrapolation
Procedure: as §1, §2

human thrombin = human thrombin (Homo sapiens, UniProt P00734); assay: Inhibition of the amidase activity of thrombin (Kass); conditions: mean over a range of test compound concentrations; […]
Human plasma [3] = assay: Human plasma anticoagulation, thrombin time (TT); conditions: concentration required to double the thrombin time, linear extrapolation
Procedure: as §1, §2

Row | Compound | Human Plasma Anticoagulation 2× Clotting time (ng/mL) APTT (Human plasma [1]) | Human Plasma Anticoagulation 2× Clotting time (ng/mL) PT (Human plasma [2]) | Kass × 10^6 (L/mole) Human Thrombin (human thrombin) | Human Plasma Anticoagulation 2× Clotting time (ng/mL) TT (Human plasma [3])
1 | N=C(N)c1ccc(CNC(=O)[C@@H]2C[C@@H]3CCCC[C@@H]3N2C(=O)[C@H]2CCCCN2)cc1 [Example 20, D-hPro-Ohi-p-NHCH2 C6 H4 C(NH)NH2.3HCl] | 550 ng/mL | 600 ng/mL | 10 × 10^6 L/mole | 62 ng/mL
2 | Cl.Cl.N=C(N)c1ccc(CNC(=O)CN(CCc2ccccc2)C(=O)[C@H]2CCCCN2)cc1 [Example 21, D-hPro-N(PhCH2CH2)Gly-p-NHCH2 C6 H4 C(NH)NH2.2HCl] | 2,000 ng/mL | 1,000 ng/mL | 3.6 × 10^6 L/mole | 160 ng/mL
3 | Cl.N=C(N)c1ccc(CNC(=O)[C@@H]2CCCN2C(=O)[C@@H](CC2CCCCC2)NCC(=O)O)c(F)c1 [Example 71, HO2 CCH2 -D-Cha-Pro-4-NHCH2 -3-F-benzamidine.HCl] | 89 ng/mL | 150 ng/mL | – | 1 ng/mL
4 | Cl.N=C(N)c1cc(F)c(CNC(=O)[C@@H]2CCCN2C(=O)[C@@H](CC2CCCCC2)NCC(=O)O)c(F)c1 [Example 72, HO2 CCH2 -D-Cha-Pro-4-NHCH2 -3,5-F2 -benzamidine.HCl] | 160 ng/mL | 160 ng/mL | – | 1 ng/mL
5 | Cl.Nc1cc(CNC(=O)[C@@H]2CCCN2C(=O)[C@@H](CC2CCCCC2)NCC(=O)O)ccn1 [Example 73, HO2 CCH2 -D-Cha-Pro-4-NHCH2 -2-aminopyridine.HCl] | 340 ng/mL | 330 ng/mL | – | 21 ng/mL
6 | Cl.Nc1ccc(CNC(=O)[C@@H]2CCCN2C(=O)[C@@H](CC2CCCCC2)NCC(=O)O)cn1 [Example 74, HO2 CCH2 -D-Cha-Pro-5-NHCH2 -2-aminopyridine.HCl] | 420 ng/mL | 350 ng/mL | – | 20 ng/mL
7 | Cl.Nc1cc(CCNC(=O)[C@@H]2CCCN2C(=O)[C@@H](CC2CCCCC2)NCC(=O)O)ccn1 [Example 76, HO2 CCH2 -D-Cha-Pro-4-NHCH2 CH2 -2-aminopyridine.HCl] | 490 ng/mL | 560 ng/mL | – | 29 ng/mL
8 | Nc1ccc(CNC(=O)[C@@H]2CCCN2C(=O)[C@@H](CC2CCCCC2)NCC(=O)O)cc1F [Example 77, HO2 CCH2 -D-Cha-Pro-4-NHCH2 -2-F-aniline.HCl] | 1,600 ng/mL | 890 ng/mL | – | 53 ng/mL
9 | NCc1ccc(CNC(=O)[C@@H]2CCCN2C(=O)[C@@H](CC2CCCCC2)NCC(=O)O)cc1 [Example 78, HO2 CCH2 -D-Cha-Pro-4-NHCH2 C6 H4 CH2 NH2.HCl] | 430 ng/mL | 760 ng/mL | – | 46 ng/mL
10 | NCC1CCC(CNC(=O)[C@@H]2CCCN2C(=O)[C@@H](CC2CCCCC2)NCC(=O)O)CC1 (stereo partly drawn) [Example 79, HO2 CCH2 -D-Cha-Pro-4-NHCH2 C6 H10 CH2 NH2.HCl] | 1,700 ng/mL | 2,400 ng/mL | – | 140 ng/mL
11 | CCS(=O)(=O)N[C@H](CC1CCCCC1)C(=O)N1CCC[C@H]1C(=O)NCc1ccc(C(=N)N)cc1.Cl [Example 80, EtSO2 -D-Cha-Pro-4-NHCH2 C6 H4 C(NH)NH2.HCl] | 40 ng/mL | 130 ng/mL | – | 4 ng/mL
12 | CCS(=O)(=O)N[C@H](CC1CCCCC1)C(=O)N1CCC[C@H]1C(=O)NCc1ccc(CN)cc1 [Example 81, EtSO2 -D-Cha-Pro-4-NHCH2 C6 H4 CH2 NH2.HCl] | 1,500 ng/mL | 2,700 ng/mL | – | 110 ng/mL
13 | CCS(=O)(=O)N[C@H](CC1CCCCC1)C(=O)N1CCC[C@H]1C(=O)NCc1ccnc(N)c1.Cl [Example 83, EtSO2 -D-Cha-Pro-4-NHCH2 -2-aminopyridine.HCl] | 1,000 ng/mL | 1,300 ng/mL | – | 91 ng/mL
14 | CCS(=O)(=O)N[C@H](CC1CCCCC1)C(=O)N1CCC[C@H]1C(=O)NCc1ccc(N)nc1.Cl [Example 84, EtSO2 -D-Cha-Pro-5-NHCH2 -2-aminopyridine.HCl] | 1,500 ng/mL | 1,900 ng/mL | – | 110 ng/mL
15 | N=C(N)c1ccc(CNC(=O)[C@@H]2CCCN2C(=O)[C@@H](CC2CCCCC2)NCCCC(=O)O)cc1 [Example 85, HOOCCH2 CH2 CH2 -D-Cha-Pro-p-NHCH2 C6 H4 C(NH)NH2.HCl] | 100 ng/mL | 197 ng/mL | – | 4.9 ng/mL
16 | N=C(N)c1ccc(CNC(=O)[C@@H]2CCCN2C(=O)[C@H](NCC(=O)O)C2CCCCC2)cc1 [Example 86, HOOCCH2 -D-Chg-Pro-p-NHCH2 C6 H4 C(NH)NH2.HCl] | 81 ng/mL | 180 ng/mL | – | 4 ng/mL
17 | N=C(N)c1ccc(CNC(=O)[C@@H]2CCCN2C(=O)[C@@H](CCC2CCCCC2)NCC(=O)O)cc1 [Example 88, HOOCCH2 -D-hCha-Pro-p-NHCH2 C6 H4 C(NH)NH2.HCl] | 100 ng/mL | 200 ng/mL | – | 4 ng/mL
18 | Cl.N=C(N)c1ccc(CNC(=O)CN(CCc2ccccc2)C(=O)CNCC(=O)O)cc1 [Example 89, HOOCCH2 -Gly-N-C6 H5 CH2 CH2 Gly-p-NHCH2 C6 H4 C(NH)NH2.HCl] | 51,000 ng/mL | 37,000 ng/mL | – | 570 ng/mL
19 | CCC(CC)C(=O)N[C@@H](CCC(=O)O)C(=O)N1CCC[C@H]1C(=O)NCc1ccc(C(=N)N)cc1 [Example 90, (C2 H5)2 CHCO-Glu-Pro-p-NHCH2 C6 H4 C(NH)NH2.HCl] | 14,500 ng/mL | 14,600 ng/mL | – | 330 ng/mL
20 | CCC(CC)C(=O)N[C@@H](CCS(C)(=O)=O)C(=O)N1CCC[C@H]1C(=O)NCc1ccc(C(=N)N)cc1 [Example 91, (C2 H5)2 CHCO-Met(O2)-Pro-p-NHCH2 C6 H4 C(NH)NH2.HCl] | 3,000 ng/mL | 3,500 ng/mL | – | 63 ng/mL
21 | CS(=O)(=O)CC(=O)N[C@H](CC1CCCCC1)C(=O)N1CCC[C@H]1C(=O)NCc1ccc(C(=N)N)cc1 [Example 92, MeSO2 CH2 CO-D-Cha-Pro-p-NHCH2 C6 H4 C(NH)NH2.HCl] | 210 ng/mL | 340 ng/mL | – | 8.9 ng/mL
22 | D-hPro-Pro-p-NHCH2 C6 H4 C(NH)NH2.HCl [Example 17] | 370 ng/mL | 400 ng/mL | – | 26 ng/mL
23 | EtSO2 -D-Phe-Pro-p-NHCH2 CH2 C6 H4 CNH(NH)NH2.HCl [Example 35] | 50,400 ng/mL | 78,400 ng/mL | – | 4,500 ng/mL
24 | HOOCCH2 -D-Phe-Pro(4-cis-isoamyl)-p-NHCH2 C6 H4 C(NH)NH2.HCl [Example 50] | 460 ng/mL | 420 ng/mL | – | 35 ng/mL
25 | HOOCCH2 -D-Phe-Pro-p-NHCH2 C6 H4 C(NH)NH2.HCl [Example 46] | 67 ng/mL | 77 ng/mL | – | 2. ng/mL
26 | NMI-D-Phe-Pro-Agm.HCl [Example 4] | – | – | 13. × 10^6 L/mole | 230 ng/mL
